In ChEMBL document CHEMBL3352762 (J Med Chem, 2014):
Activity calls are given as the source filed them. The calls are words filed in the database; no cut-off is given here. Peptide text beside a SMILES is read from it.

Experiments:
Urotensin-2 receptor [1] = biological target: T1, Urotensin-2 receptor (Homo sapiens, UniProt Q9UKP6); assay: Displacement of [125I]urotensin-2 from human recombinant UT receptor expressed in CHO-K1 cells by scintillation counting method; assay type: cell-based
T1 sequence (Q9UKP6 whole entry): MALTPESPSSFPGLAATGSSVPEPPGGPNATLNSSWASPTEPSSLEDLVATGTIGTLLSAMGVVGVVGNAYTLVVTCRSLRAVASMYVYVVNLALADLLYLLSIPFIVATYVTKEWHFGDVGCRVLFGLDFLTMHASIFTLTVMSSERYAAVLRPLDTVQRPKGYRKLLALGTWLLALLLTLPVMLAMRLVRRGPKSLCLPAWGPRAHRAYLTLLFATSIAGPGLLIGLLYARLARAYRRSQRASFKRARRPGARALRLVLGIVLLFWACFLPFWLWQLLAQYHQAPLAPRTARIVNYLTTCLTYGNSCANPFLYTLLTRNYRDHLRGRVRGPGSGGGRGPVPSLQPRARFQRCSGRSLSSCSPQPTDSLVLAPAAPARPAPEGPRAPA

Urotensin-2 receptor [2] = biological target: T2, Urotensin-2 receptor (Rattus norvegicus, UniProt P49684); assay: (§1) Agonist activity at UT receptor in rat aorta assessed as contraction; assay type: tissue-based
T2 sequence (P49684 whole entry): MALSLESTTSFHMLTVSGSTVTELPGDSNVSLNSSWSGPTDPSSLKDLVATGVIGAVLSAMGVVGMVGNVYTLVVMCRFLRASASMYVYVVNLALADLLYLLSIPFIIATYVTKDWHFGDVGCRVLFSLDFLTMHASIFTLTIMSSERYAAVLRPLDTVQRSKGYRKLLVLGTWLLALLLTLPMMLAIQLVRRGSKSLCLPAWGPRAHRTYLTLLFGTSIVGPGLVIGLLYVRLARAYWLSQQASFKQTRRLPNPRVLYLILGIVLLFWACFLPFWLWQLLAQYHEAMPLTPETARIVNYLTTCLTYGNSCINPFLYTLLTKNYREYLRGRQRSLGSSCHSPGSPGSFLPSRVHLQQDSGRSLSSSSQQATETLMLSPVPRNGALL

[3] = biological target: T3, Urotensin-2 receptor (Rattus norvegicus) (UniProt P49684); assay: Agonist activity at UT receptor in rat aorta assessed as contraction relative to urotensin-2; assay type: tissue-based
T3 sequence (whole entry): T2 sequence (P49684 whole entry)

[4] = biological target: T3, Urotensin-2 receptor (Rattus norvegicus); assay: as §1; assay type: tissue-based
[5] = biological target: T3, Urotensin-2 receptor (Rattus norvegicus); assay: Competitive antagonist activity at UT receptor in rat aorta assessed as effect on urotensin-2-induced contraction; assay type: tissue-based
[6] = biological target: T4, Urotensin-2 receptor (Homo sapiens) (UniProt Q9UKP6); assay: Partial agonist activity at human recombinant UT receptor expressed in CHO-K1 cells assessed as stimulation of intracellular calcium mobilization by FLIPR assay; assay type: functional, cell-based
T4 sequence (whole entry): T1 sequence (Q9UKP6 whole entry)

[7] = biological target: T4, Urotensin-2 receptor (Homo sapiens); assay: Partial agonist activity at human recombinant UT receptor expressed in CHO-K1 cells assessed as stimulation of intracellular calcium mobilization at 1 uM by FLIPR assay relative to urotensin-2; assay type: functional, cell-based
[8] = biological target: T4, Urotensin-2 receptor (Homo sapiens); assay: Partial agonist activity at human recombinant UT receptor expressed in CHO-K1 cells assessed as stimulation of intracellular calcium mobilization at 10 uM by FLIPR assay relative to urotensin-2; assay type: functional, cell-based
[9] = Stability in 25% fetal calf serum assessed as parent compound remaining at 80 uM at 37 degC after 16 hrs by RP-HPLC-UV based detection assay; assay type: ADME, Bos taurus; details: cattle, read-out: Stability
[10] = Stability in 25% fetal calf serum assessed as parent compound remaining at 80 uM at 37 degC after 36 hrs by RP-HPLC-UV based detection assay; assay type: ADME, Bos taurus; details: cattle, read-out: Stability

Work on CC(C)[C@H](NC(=O)[C@@H]1CSSC(C)(C)[C@H](NC(=O)[C@@H](N)CC(=O)O)C(=O)N[C@@H](Cc2ccccc2)C(=O)N[C@@H](Cc2c[nH]c3ccccc23)C(=O)N[C@@H](CCCCN)C(=O)N[C@@H](Cc2nc3ccccc3s2)C(=O)N1)C(=O)O (HELM PEPTIDE1{D.[Pen].F.W.K.[O=C([C@H](Cc1nc2ccccc2s1)N[*:1])[*:2]].C.V}$PEPTIDE1,PEPTIDE1,2:R3-7:R3$$$V2.0) yielded a Ki (Urotensin-2 receptor [1]) of 1.74 nM, an EC50 (Urotensin-2 receptor [2]) of 0.0195 nM and an Emax [3] of 89%.
For CC(C)[C@H](NC(=O)[C@@H]1CSSC(C)(C)[C@H](NC(=O)[C@@H](N)CC(=O)O)C(=O)N[C@@H](Cc2ccccc2)C(=O)N[C@H](Cc2c[nH]c3ccccc23)C(=O)N[C@@H](CCCN)C(=O)N[C@@H](Cc2cccc3ccccc23)C(=O)N1)C(=O)O, the Ki (Urotensin-2 receptor [1]) was 6.46 nM, the EC50 (Urotensin-2 receptor [2]) was 18.2 nM and the Emax [3] was 37%.
CC(C)[C@H](NC(=O)[C@@H]1CSSC(C)(C)[C@H](NC(=O)[C@@H](N)CC(=O)O)C(=O)N[C@@H](Cc2ccccc2)C(=O)N[C@H](Cc2c[nH]c3ccccc23)C(=O)N[C@@H](CCCN)C(=O)N[C@@H](Cc2ccc3ccccc3c2)C(=O)N1)C(=O)O showed a Ki (Urotensin-2 receptor [1]) of 0.724 nM, an EC50 (Urotensin-2 receptor [2]) of 3.8 nM and an Emax [3] of 13%.
Molecule CC(C)[C@H](NC(=O)[C@@H]1CSSC(C)(C)[C@H](NC(=O)[C@@H](N)CC(=O)O)C(=O)N[C@@H](Cc2ccccc2)C(=O)N[C@@H](Cc2c[nH]c3ccccc23)C(=O)N[C@@H](CCCCN)C(=O)N[C@@H](Cc2ccc(C#N)cc2)C(=O)N1)C(=O)O (HELM PEPTIDE1{D.[Pen].F.W.K.[N#Cc1ccc(C[C@H](N[*:1])C(=O)[*:2])cc1].C.V}$PEPTIDE1,PEPTIDE1,2:R3-7:R3$$$V2.0) has a Ki (Urotensin-2 receptor [1]) of 1.82 nM, an EC50 (Urotensin-2 receptor [2]) of 1.07 nM and an Emax [3] of 79%.
In the case of CC(C)[C@H](NC(=O)[C@@H]1CSSC(C)(C)[C@H](NC(=O)[C@@H](N)CC(=O)O)C(=O)N[C@@H](Cc2ccccc2)C(=O)N[C@H](Cc2c[nH]c3ccccc23)C(=O)N[C@@H](CCCN)C(=O)N[C@@H](Cc2ccc(Cl)cc2)C(=O)N1)C(=O)O, the Ki (Urotensin-2 receptor [1]) is reported as 1.05 nM, the EC50 (Urotensin-2 receptor [2]) is reported as 2.69 nM and the Emax [3] is reported as 13%.
For CC(C)[C@H](NC(=O)[C@@H]1CSSC(C)(C)[C@H](NC(=O)[C@@H](N)CC(=O)O)C(=O)N[C@@H](Cc2ccccc2)C(=O)N[C@H](Cc2c[nH]c3ccccc23)C(=O)N[C@@H](CCCN)C(=O)N[C@@H](Cc2ccc([N+](=O)[O-])cc2)C(=O)N1)C(=O)O, the Ki (Urotensin-2 receptor [1]) was 17 nM, the pEC50 [4] was “inactive” and the Emax [3] was 0%. For the same molecule, the pKb [5] was 8.12, the Activity [6] was “Active” and the Efficacy [7] was 56.5%. The Efficacy [8] was 61.2%.
Work on CC(C)[C@H](NC(=O)[C@@H]1CSSC(C)(C)[C@H](NC(=O)[C@@H](N)CC(=O)O)C(=O)N[C@@H](Cc2ccccc2)C(=O)N[C@@H](Cc2c[nH]c3ccccc23)C(=O)N[C@@H](CCCCN)C(=O)N[C@@H](Cc2ccc(Cl)c(Cl)c2)C(=O)N1)C(=O)O (HELM PEPTIDE1{D.[Pen].F.W.K.[O=C([C@H](Cc1ccc(Cl)c(Cl)c1)N[*:1])[*:2]].C.V}$PEPTIDE1,PEPTIDE1,2:R3-7:R3$$$V2.0) yielded a Ki (Urotensin-2 receptor [1]) of 0.776 nM, an EC50 (Urotensin-2 receptor [2]) of 0.0126 nM and an Emax [3] of 102%. The remaining at 16 h, 80 µM [9] was > 70% and the remaining at 36 h, 80 µM [10] was > 50%.
In the case of CC(C)[C@H](NC(=O)[C@@H]1CSSC[C@H](NC(=O)[C@@H](N)CC(=O)O)C(=O)N[C@@H](Cc2ccccc2)C(=O)N[C@@H](Cc2c[nH]c3ccccc23)C(=O)N[C@@H](CCCCN)C(=O)N[C@@H](Cc2ccc(O)cc2)C(=O)N1)C(=O)O (HELM PEPTIDE1{D.C.F.W.K.Y.C.V}$PEPTIDE1,PEPTIDE1,2:R3-7:R3$$$V2.0), the Ki (Urotensin-2 receptor [1]) is reported as 0.251 nM, the EC50 (Urotensin-2 receptor [2]) is reported as 3.63 nM and the Emax [3] is reported as 100%. The remaining at 16 h, 80 µM [9] was < 50%.
CC(C)[C@H](NC(=O)[C@@H]1CSSC(C)(C)[C@H](NC(=O)[C@@H](N)CC(=O)O)C(=O)N[C@@H](Cc2ccccc2)C(=O)N[C@@H](Cc2c[nH]c3ccccc23)C(=O)N[C@@H](CCCCN)C(=O)N[C@@H](Cc2ccc3ccccc3c2)C(=O)N1)C(=O)O (HELM PEPTIDE1{D.[Pen].F.W.K.[O=C([C@H](Cc1ccc2ccccc2c1)N[*:1])[*:2]].C.V}$PEPTIDE1,PEPTIDE1,2:R3-7:R3$$$V2.0) gave a Ki (Urotensin-2 receptor [1]) of 2 nM, an EC50 (Urotensin-2 receptor [2]) of 0.724 nM and an Emax [3] of 85%.
